Measured values as given in patent US10131652B2, “Pyrimidinyloxy benzene derivatives as herbicides” (E. I. DU PONT DE NEMOURS AND COMPANY, priority 2014, dated 2018).
Read-outs that look alike come from different tables or passages of the source.

What was measured:
Experiment in all cases: Test E pre-/postemergence plant response
Type in all cases: in vivo
[1] = test system: bluegrass (annual bluegrass, Poa annua); settings: scale 0 to 100, read-out: Plant response rating, Bluegrass; for pest or weed control at 16 g/ha: 16 g ai/ha; for pest or weed control at 31 g/ha: 31 g ai/ha; for pest or weed control at 62 g/ha: 62 g ai/ha; for pest or weed control at 125 g/ha: 125 g ai/ha
Outline: (§1)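 Pre-emergence: seeds sown in silt loam soil and sprayed with test chemicals in a non-phytotoxic solvent/surfactant mix. Post-emergence: plants at 2–18 cm (1- to 4-leaf stage) in peat/vermiculite medium treated with the same formulation. Visual rating versus controls after 7–21 days, 0 (no effect) to 100 (complete control).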

[2] = test system: windgrass (Apera spica-venti); settings: scale 0 to 100, read-out: Plant response rating, Windgrass; for pest or weed control at 16 g/ha: 16 g ai/ha; for pest or weed control at 62 g/ha: 62 g ai/ha; for pest or weed control at 125 g/ha: 125 g ai/ha
Outline: as §1

[3] = test system: galium (catchweed bedstraw, Galium aparine); settings: scale 0 to 100, read-out: Plant response rating, Galium; for pest or weed control at 16 g/ha: 16 g ai/ha; for pest or weed control at 31 g/ha: 31 g ai/ha; for pest or weed control at 62 g/ha: 62 g ai/ha; for pest or weed control at 125 g/ha: 125 g ai/ha
Outline: as §1

[4] = test system: canarygrass (Phalaris minor); settings: scale 0 to 100, read-out: Plant response rating, Canarygrass; for pest or weed control at 16 g/ha: 16 g ai/ha; for pest or weed control at 31 g/ha: 31 g ai/ha; for pest or weed control at 62 g/ha: 62 g ai/ha; for pest or weed control at 125 g/ha: 125 g ai/ha
Outline: as §1

[5] = test system: winter barley (Hordeum vulgare); settings: post-emergence, Postemergence, scale 0 to 100, read-out: Plant response rating, Barley, Winter
Outline: as §1

[6] = test system: wild mustard (Sinapis arvensis); settings: Brassica, scale 0 to 100, read-out: Plant response rating, Mustard, Wild; for pest or weed control at 16 g/ha: 16 g ai/ha; for pest or weed control at 31 g/ha: 31 g ai/ha; for pest or weed control at 62 g/ha: 62 g ai/ha; for pest or weed control at 125 g/ha: 125 g ai/ha
Outline: as §1

[7] = test system: speedwell (bird's-eye speedwell, Veronica persica); settings: scale 0 to 100, read-out: Plant response rating, Speedwell; for pest or weed control at 16 g/ha: 16 g ai/ha; for pest or weed control at 62 g/ha: 62 g ai/ha; for pest or weed control at 125 g/ha: 125 g ai/ha
Outline: as §1

[8] = test system: downy bromegrass (Bromus tectorum); settings: scale 0 to 100, read-out: Plant response rating, Bromegrass, Downy; for pest or weed control at 16 g/ha: 16 g ai/ha; for pest or weed control at 31 g/ha: 31 g ai/ha; for pest or weed control at 62 g/ha: 62 g ai/ha; for pest or weed control at 125 g/ha: 125 g ai/ha
Outline: as §1

[9] = test system: chickweed (common chickweed, Stellaria media); settings: scale 0 to 100, read-out: Plant response rating, Chickweed; for pest or weed control at 16 g/ha: 16 g ai/ha; for pest or weed control at 31 g/ha: 31 g ai/ha; for pest or weed control at 62 g/ha: 62 g ai/ha; for pest or weed control at 125 g/ha: 125 g ai/ha
Outline: as §1

[10] = test system: spring barley (Hordeum vulgare); settings: post-emergence, Postemergence
Outline: as §1

[11] = post-emergence, 31 g ai/ha, Postemergence

## FC(F)(F)c1cc(-c2ccccc2Oc2ncc(Cl)cn2)no1 [Compound 200, 5-chloro-2-[2-[5-(trifluoromethyl)-3-isoxazolyl]phenoxy]pyrimidine]
[1]; post-emergence, Postemergence
  pest or weed control at 16 g/ha: 20%
  pest or weed control at 31 g/ha: 35%
  pest or weed control at 62 g/ha: 55%
  pest or weed control at 125 g/ha: 70%
[1]; pre-emergence, Preemergence
  pest or weed control at 16 g/ha: 20%
  pest or weed control at 31 g/ha: 70%
  pest or weed control at 62 g/ha: 95%
  pest or weed control at 125 g/ha: 100%
[2]; post-emergence, Postemergence
  pest or weed control at 16 g/ha: 10%
  pest or weed control at 62 g/ha: 35%
  pest or weed control at 125 g/ha: 45%
[2]; [11]
  pest or weed control at 31 g/ha: 20%
[2]; pre-emergence, Preemergence
  pest or weed control at 16 g/ha: 15%
  pest or weed control at 62 g/ha: 100%
  pest or weed control at 125 g/ha: 100%
[3]; post-emergence, Postemergence
  pest or weed control at 16 g/ha: 70%
  pest or weed control at 31 g/ha: 75%
  pest or weed control at 62 g/ha: 75%
  pest or weed control at 125 g/ha: 90%
[3]; pre-emergence, Preemergence
  pest or weed control at 16 g/ha: 15%
  pest or weed control at 31 g/ha: 25%
  pest or weed control at 62 g/ha: 55%
  pest or weed control at 125 g/ha: 100%
[4]; post-emergence, Postemergence
  pest or weed control at 16 g/ha: 10%
  pest or weed control at 31 g/ha: 35%
  pest or weed control at 62 g/ha: 45%
  pest or weed control at 125 g/ha: 60%
[4]; pre-emergence, Preemergence
  pest or weed control at 16 g/ha: 10%
  pest or weed control at 31 g/ha: 55%
  pest or weed control at 62 g/ha: 100%
  pest or weed control at 125 g/ha: 100%
[5]; 16 g ai/ha
  plant injury at 16 g/ha: 5%
[5]; 31 g ai/ha
  plant injury at 31 g/ha: 10%
[5]; 62 g ai/ha
  plant injury at 62 g/ha: 20%
[5]; 125 g ai/ha
  plant injury at 125 g/ha: 25%
[6]; post-emergence, Postemergence
  pest or weed control at 16 g/ha: 75%
  pest or weed control at 31 g/ha: 95%
  pest or weed control at 62 g/ha: 100%
  pest or weed control at 125 g/ha: 100%
[6]; pre-emergence, Preemergence
  pest or weed control at 16 g/ha: 85%
  pest or weed control at 31 g/ha: 95%
  pest or weed control at 62 g/ha: 85%
  pest or weed control at 125 g/ha: 100%
[7]; post-emergence, Postemergence
  pest or weed control at 16 g/ha: 70%
  pest or weed control at 62 g/ha: 100%
  pest or weed control at 125 g/ha: 100%
[7]; [11]
  pest or weed control at 31 g/ha: 100%
[7]; pre-emergence, Preemergence
  pest or weed control at 16 g/ha: 100%
  pest or weed control at 62 g/ha: 100%
  pest or weed control at 125 g/ha: 100%
[8]; post-emergence, Postemergence
  pest or weed control at 16 g/ha: 5%
  pest or weed control at 31 g/ha: 10%
  pest or weed control at 62 g/ha: 25%
  pest or weed control at 125 g/ha: 35%
[8]; pre-emergence, Preemergence
  pest or weed control at 16 g/ha: 10%
  pest or weed control at 31 g/ha: 35%
  pest or weed control at 62 g/ha: 45%
  pest or weed control at 125 g/ha: 80%
[9]; post-emergence, Postemergence
  pest or weed control at 16 g/ha: 65%
  pest or weed control at 31 g/ha: 75%
  pest or weed control at 62 g/ha: 100%
  pest or weed control at 125 g/ha: 100%
[9]; pre-emergence, Preemergence
  pest or weed control at 16 g/ha: 70%
  pest or weed control at 31 g/ha: 90%
  pest or weed control at 62 g/ha: 100%
  pest or weed control at 125 g/ha: 100%
[10]; 16 g ai/ha, scale 0 to 100, read-out: Plant response rating, Barley, Spring
  plant injury at 16 g/ha: 10%
[10]; 31 g ai/ha, scale 0 to 100, read-out: Plant response rating, Barley, Spring
  plant injury at 31 g/ha: 15%
[10]; 62 g ai/ha, scale 0 to 100, read-out: Plant response rating, Barley, Spring
  plant injury at 62 g/ha: 25%
[10]; 125 g ai/ha, scale 0 to 100 (0 no effect, 100 complete control), read-out: Plant response rating, Barley, Spring
  plant injury at 125 g/ha: 35%
